In ChEMBL document CHEMBL1138606, “The discovery of tropane derivatives as nociceptin receptor ligands for the management of cough and anxiety” (Bioorg Med Chem Lett, 2009):
The source made the active and inactive calls. The calls are words filed in the database; no cut-off is given here.

Experiments:
[1] = AUC (0 to 24 hrs) in rat at 3 mg/kg, po; format: ADME, organism-based; set-up: time < 24 hr, dose 3 mg/kg, route oral; conditions: plasma
[2] = species on record: Cavia porcellus; assay: Anxiolytic activity in Dunkin-Hartley guinea pig pup assessed as reduction in number of vocalization produced due to separation measured after 2 hrs; format: functional
[3] = Oral bioavailability in rat at 3 mg/kg; format: ADME, organism-based; conditions: in vivo
[4] = system: Rattus norvegicus; assay: Anxiolytic activity in po dosed CD rats assessed as suppression of conditioned paw licking administered twice per day for 14 days measured after 2 hrs of last dose; format: functional
[5] = Clearance in rat at 3 mg/kg, po; format: ADME, organism-based; set-up: dose 3 mg/kg, route oral; conditions: in vivo
[6] = target: T1, Cytochrome P450 2C9 (Homo sapiens, UniProt P11712); assay: Inhibition of CYP2C9 co-incubated with substrate; format: ADME
T1 sequence (P11712 whole entry): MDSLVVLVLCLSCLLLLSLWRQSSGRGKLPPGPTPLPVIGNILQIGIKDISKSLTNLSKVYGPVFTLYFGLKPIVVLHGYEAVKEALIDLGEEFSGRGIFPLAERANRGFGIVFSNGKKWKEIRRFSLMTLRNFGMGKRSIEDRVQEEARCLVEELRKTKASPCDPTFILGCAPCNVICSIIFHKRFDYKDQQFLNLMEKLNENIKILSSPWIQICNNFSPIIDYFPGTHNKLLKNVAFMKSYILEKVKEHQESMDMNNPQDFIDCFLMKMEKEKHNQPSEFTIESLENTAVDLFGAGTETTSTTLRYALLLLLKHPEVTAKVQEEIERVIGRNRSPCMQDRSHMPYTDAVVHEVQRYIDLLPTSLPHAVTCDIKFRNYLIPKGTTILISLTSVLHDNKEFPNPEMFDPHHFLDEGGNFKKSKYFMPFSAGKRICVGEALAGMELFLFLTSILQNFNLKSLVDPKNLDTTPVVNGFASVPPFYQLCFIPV

[7] = target: Cytochrome P450 2D6 (Homo sapiens, UniProt P10635); assay: Inhibition of CYP2D6; format: ADME
Chain of Cytochrome P450 2D6 (P10635 whole entry): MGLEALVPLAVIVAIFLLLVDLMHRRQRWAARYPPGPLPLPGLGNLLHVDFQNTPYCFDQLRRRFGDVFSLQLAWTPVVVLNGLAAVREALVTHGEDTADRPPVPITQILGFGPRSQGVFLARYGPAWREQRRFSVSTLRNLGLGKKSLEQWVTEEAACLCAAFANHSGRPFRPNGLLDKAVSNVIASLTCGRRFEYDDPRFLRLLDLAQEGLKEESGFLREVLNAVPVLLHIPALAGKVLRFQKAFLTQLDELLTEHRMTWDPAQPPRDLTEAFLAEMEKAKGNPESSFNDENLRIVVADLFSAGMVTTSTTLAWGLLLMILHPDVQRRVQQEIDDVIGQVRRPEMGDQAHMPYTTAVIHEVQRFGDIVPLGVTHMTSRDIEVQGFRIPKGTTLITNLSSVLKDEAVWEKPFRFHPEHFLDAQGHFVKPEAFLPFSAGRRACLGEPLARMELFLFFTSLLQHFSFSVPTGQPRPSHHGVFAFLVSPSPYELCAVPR

[8] = Half life in rat at 3 mg/kg, po; format: ADME, organism-based; set-up: dose 3 mg/kg, route oral; conditions: in vivo
[9] = target: Cytochrome P450 3A4 (Homo sapiens, UniProt P08684); assay: Inhibition of CYP3A4; format: ADME
Chain of Cytochrome P450 3A4 (P08684 whole entry): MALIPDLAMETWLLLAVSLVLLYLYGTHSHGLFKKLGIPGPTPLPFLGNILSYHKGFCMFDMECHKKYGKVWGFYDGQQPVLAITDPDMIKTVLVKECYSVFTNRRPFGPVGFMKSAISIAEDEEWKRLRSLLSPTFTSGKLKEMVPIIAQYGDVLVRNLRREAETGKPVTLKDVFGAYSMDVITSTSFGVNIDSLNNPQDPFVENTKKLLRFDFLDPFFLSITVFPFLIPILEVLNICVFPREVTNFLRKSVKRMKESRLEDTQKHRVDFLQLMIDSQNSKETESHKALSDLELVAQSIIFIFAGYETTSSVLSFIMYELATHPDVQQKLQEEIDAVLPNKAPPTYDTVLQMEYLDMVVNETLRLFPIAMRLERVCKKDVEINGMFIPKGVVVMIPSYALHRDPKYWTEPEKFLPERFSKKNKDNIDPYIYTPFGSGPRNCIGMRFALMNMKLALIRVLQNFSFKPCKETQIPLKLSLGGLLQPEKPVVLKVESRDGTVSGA

[10] = system: Rattus norvegicus; assay: Anxiolytic activity in po dosed CD rats assessed as suppression of conditioned paw licking administered twice per day for 14 days measured after 2 hrs of last dose in presence of […]; format: functional, organism-based
[11] = system: Rattus norvegicus; assay: Volume of distribution at steady state in rat at 3 mg/kg, po; format: ADME, organism-based; set-up: dose 3 mg/kg, route oral; conditions: in vivo
[12] = system: Cavia porcellus; assay: Antitussive activity against capsaicin-induced cough in po dosed Hartley guinea pig model after 2 hrs; format: functional
[13] = Clearance in human hepatocytes measured per 10^6 cells; format: ADME, cell-based, Liver, Hepatocyte
[14] = Cmax in rat at 3 mg/kg, po; format: ADME, organism-based; set-up: dose 3 mg/kg, route oral; conditions: in vivo
[15] = target: T1, Cytochrome P450 2C9; assay: Inhibition of CYP2C9 pre-incubated before addition of substrate; format: ADME

Q: What does the source list for `NC(=O)C1(c2ccccc2)CC2CCC(C1)N2C(c1ccccc1Cl)c1ccccc1Cl` (stereo not given)?
A: AUC(0-t) at 24 h [1]: 0.54 µM·h; ED50 [2]: 0.4 mg/kg; bioavailability [3]: 37%; ED50 [4]: 1.4 mg/kg; CL/F [5]: 73 mL/min/kg; IC50 [6]: 8 µM; IC50 [7]: > 30 µM; half-life [8]: 108 min; IC50 [9]: > 30 µM; Activity [10]: inactive; Vdss [11]: 9.1 L/kg; ED50 [12]: 0.3 mg/kg; hepatocyte CLint [13]: 3 µL/min/1e6 cells; Cmax [14]: 80 nM; IC50 [15]: 19 µM
